Data reported in the Kinase Knowledgebase extract (Sharma et al. 2016).
Converted amounts (≈) assume the structure as drawn.

The molecules below were run against EGFR (human) (UniProt P00533). Settings: a431.
Chain of EGFR (human) (P00533 whole entry, looked up): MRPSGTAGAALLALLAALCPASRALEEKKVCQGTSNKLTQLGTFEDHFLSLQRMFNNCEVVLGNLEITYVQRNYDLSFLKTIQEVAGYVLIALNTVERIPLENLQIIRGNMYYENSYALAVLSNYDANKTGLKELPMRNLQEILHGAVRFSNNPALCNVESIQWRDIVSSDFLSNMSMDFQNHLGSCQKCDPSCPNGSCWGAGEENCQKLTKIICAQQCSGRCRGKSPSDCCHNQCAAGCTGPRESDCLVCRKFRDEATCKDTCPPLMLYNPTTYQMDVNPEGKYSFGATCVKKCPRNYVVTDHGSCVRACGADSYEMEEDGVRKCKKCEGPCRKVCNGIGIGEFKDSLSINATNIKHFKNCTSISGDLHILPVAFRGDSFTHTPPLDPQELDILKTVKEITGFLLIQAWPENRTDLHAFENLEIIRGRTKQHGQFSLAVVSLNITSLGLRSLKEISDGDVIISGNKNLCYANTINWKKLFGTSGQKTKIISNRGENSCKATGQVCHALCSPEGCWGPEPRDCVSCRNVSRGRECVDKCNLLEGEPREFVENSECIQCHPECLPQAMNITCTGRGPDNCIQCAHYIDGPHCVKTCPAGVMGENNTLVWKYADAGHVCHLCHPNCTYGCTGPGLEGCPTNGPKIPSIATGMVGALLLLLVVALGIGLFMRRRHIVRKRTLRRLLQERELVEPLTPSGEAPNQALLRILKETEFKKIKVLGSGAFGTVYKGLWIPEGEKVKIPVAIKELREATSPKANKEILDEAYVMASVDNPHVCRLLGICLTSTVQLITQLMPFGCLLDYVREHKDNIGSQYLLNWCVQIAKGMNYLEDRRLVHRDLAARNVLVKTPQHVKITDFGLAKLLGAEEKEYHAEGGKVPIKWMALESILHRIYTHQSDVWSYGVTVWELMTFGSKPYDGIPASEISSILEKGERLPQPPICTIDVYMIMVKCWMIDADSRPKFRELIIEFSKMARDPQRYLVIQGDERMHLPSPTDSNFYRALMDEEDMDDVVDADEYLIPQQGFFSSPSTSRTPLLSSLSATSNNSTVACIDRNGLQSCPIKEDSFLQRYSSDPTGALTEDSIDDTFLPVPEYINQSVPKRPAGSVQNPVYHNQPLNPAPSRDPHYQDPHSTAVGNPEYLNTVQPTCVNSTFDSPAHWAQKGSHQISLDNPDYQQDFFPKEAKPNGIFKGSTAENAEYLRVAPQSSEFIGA

Row | Compound | IC50 [µg/mL]
1 | CCOc1cc2ncc(C#N)c(Nc3ccc4c(c3)CCC4=O)c2cc1OCC | 0.0181 (≈ 0.0467 µM)
2 | CCOc1cc2ncc(C#N)c(Nc3ccc(Sc4nccc(C)n4)c(Cl)c3)c2cc1N | 1.53 (≈ 3.3 µM)
3 | CCOc1cc2ncc(C#N)c(Nc3cc(Cl)c(Nc4nncs4)c(C(F)(F)F)c3)c2cc1[N+](=O)[O-] | 1.79 (≈ 3.34 µM)
4 | CCOc1cc2ncc(C#N)c(Nc3ccc4cn[nH]c4c3)c2cc1OC | 0.0368 (≈ 0.102 µM)
5 | CCOc1cc2ncc(C#N)c(Nc3ccc(Sc4nc(C)cc(C)n4)c(Cl)c3)c2cc1N | 0.76 (≈ 1.59 µM)
6 | COCCOc1cc2ncc(C#N)c(Nc3ccc4cn[nH]c4c3)c2cc1OCCOC | 1.96 (≈ 4.52 µM)
7 | CCOc1cc2ncc(C#N)c(Nc3ccc(Sc4nc(-c5ccccc5)cs4)c(C(F)(F)F)c3)c2cc1N | > 5
8 | COc1cc2ncc(C#N)c(Nc3ccc(N(c4ccc(N(Cc5cccnc5)C(C)=O)c(Cl)c4)c4c(OC)cnc5ccccc45)c(Cl)c3)c2cc1N | > 5
9 | CCOc1cc2ncc(C#N)c(Nc3ccc(OCc4ccccc4)c(Cl)c3)c2cc1NC(=O)/C=C/CN(C)C | 0.062 (≈ 0.111 µM)
10 | COc1cc2ncc(C#N)c(Nc3ccc(N(Cc4cccnc4)C(C)=O)c(Cl)c3)c2cc1NC(=O)/C=C/CN(C)C | 0.646 (≈ 1.11 µM)
11 | CCOc1cc2ncc(C#N)c(Nc3cc(Cl)c(Nc4nncs4)c(C(F)(F)F)c3)c2cc1NC(=O)/C=C/CN(C)C | 0.728 (≈ 1.18 µM)
12 | CCOc1cc2ncc(C#N)c(Nc3ccc4c(c3)CCC4)c2cc1OCC | 0.342 (≈ 0.916 µM)
13 | COc1cc2ncc(C#N)c(Nc3ccc(Sc4nccs4)c(Cl)c3)c2cc1[N+](=O)[O-] | 0.148 (≈ 0.315 µM)
14 | CCOc1cc2c(Nc3ccc4cn[nH]c4c3)c(C#N)cnc2cc1OC | 0.786 (≈ 2.19 µM)
15 | CCOc1cc2ncc(C#N)c(Nc3ccc(Cn4ccnc4)c(Cl)c3)c2cc1NC(=O)/C=C/CN(C)C | 0.95 (≈ 1.79 µM)
16 | COc1cc2c(Nc3ccc(Sc4nccn4C)c(Cl)c3)c(C#N)cnc2cc1OCCCn1ccnn1 | 1.83 (≈ 3.35 µM)
17 | CCOc1cc2ncc(C#N)c(Nc3ccc(Sc4nc(-c5ccccc5)cs4)c(C(F)(F)F)c3)c2cc1[N+](=O)[O-] | 0.76 (≈ 1.28 µM)
18 | CCOc1cc2ncc(C#N)c(Nc3ccc(Oc4ccncc4)c(Cl)c3)c2cc1N | > 5
19 | COc1cc2ncc(C#N)c(Nc3ccc4cn[nH]c4c3)c2cc1OCCCN1CCOCC1 | > 5

The remaining lines, values ahead:

Row | IC50 [µg/mL] | Compound
20 | 0.663 (≈ 1.51 µM) | COc1cc2ncc(C#N)c(Nc3ccc(Sc4nccs4)c(Cl)c3)c2cc1N
21 | 0.017 (≈ 0.0308 µM) | COc1cc2ncc(C#N)c(Nc3ccc(Sc4nccs4)c(Cl)c3)c2cc1NC(=O)/C=C/CN(C)C
22 | 1.2 (≈ 2.43 µM) | CCOc1cc2ncc(C#N)c(Nc3ccc(Sc4nccc(C)n4)c(Cl)c3)c2cc1[N+](=O)[O-]
23 | 0.27 (≈ 0.69 µM) | CCOc1cc2ncc(C#N)c(Nc3ccc4c(c3)OCCO4)c2cc1OCC
24 | 0.62 (≈ 1.35 µM) | C=CC(=O)Nc1ccc2ncc(C#N)c(Nc3ccc(Sc4nccn4C)c(Cl)c3)c2c1
25 | 1.22 (≈ 2.44 µM) | COc1cc2ncc(C#N)c(Nc3ccc(Sc4nc5ccccc5c(=O)[nH]4)c(Cl)c3)c2cc1N
26 | 0.257 (≈ 0.61 µM) | CCOc1cc2ncc(C#N)c(Nc3ccc4c(c3)S(=O)(=O)C=C4)c2cc1OCC
27 | 0.123 (≈ 0.33 µM) | CCOc1cc2ncc(C#N)c(Nc3ccc4cc[nH]c4c3)c2cc1OCC
28 | 0.34 (≈ 0.555 µM) | COc1cc2ncc(C#N)c(Nc3ccc(Sc4nc5ccccc5c(=O)[nH]4)c(Cl)c3)c2cc1NC(=O)/C=C/CN(C)C
29 | 0.03 (≈ 0.0504 µM) | COCCN(C)C/C=C/C(=O)Nc1cc2c(Nc3ccc(Sc4nccs4)c(Cl)c3)c(C#N)cnc2cc1OC
30 | 3.68 (≈ 4.47 µM) | COc1ccc2c(N(c3ccc(N(Cc4cccnc4)C(C)=O)c(Cl)c3)c3ccc(Nc4c(C#N)cnc5cc(OC)c(NC(C)=O)cc45)cc3Cl)c(C#N)cnc2c1
31 | > 5 | CCOc1cc2ncc(C#N)c(Nc3ccc(Sc4nc(C)cc(C)n4)c(Cl)c3)c2cc1[N+](=O)[O-]
32 | 0.24 (≈ 0.408 µM) | CCOc1cc2ncc(C#N)c(Nc3ccc(Sc4nc(C)cc(C)n4)c(Cl)c3)c2cc1NC(=O)/C=C/CN(C)C
33 | > 5 | CCOc1cc2ncc(C#N)c(Nc3ccc(Cn4ccnc4)c(Cl)c3)c2cc1N
34 | > 5 | CCOc1cc2ncc(C#N)c(Nc3ccc(Cn4ccnc4)c(Cl)c3)c2cc1[N+](=O)[O-]
35 | 3.04 (≈ 6.96 µM) | COc1cc2ncc(C#N)c(Nc3ccc(Sc4nccn4C)c(Cl)c3)c2cc1N
36 | 1.6 (≈ 3.47 µM) | COc1cc2ncc(C#N)c(Nc3ccc(NCc4cccnc4)c(Cl)c3)c2cc1[N+](=O)[O-]
37 | 0.162 (≈ 0.258 µM) | COc1cc2ncc(C#N)c(Nc3ccc(Sc4nc(-c5ccccc5)cs4)c(Cl)c3)c2cc1NC(=O)/C=C/CN(C)C
38 | > 5 | CCOc1cc2ncc(C#N)c(Nc3ccc(Oc4ccncc4)c(Cl)c3)c2cc1[N+](=O)[O-]
39 | 2.28 (≈ 3.95 µM) | COc1cc2nc(Sc3ccc(Nc4c(C#N)cnc5cc(OC)c([N+](=O)[O-])cc45)cc3Cl)[nH]c(=O)c2cc1O
40 | 0.775 (≈ 1.37 µM) | COc1cc2c(Nc3ccc(Sc4nccn4C)c(Cl)c3)c(C#N)cnc2cc1OCCCN1CCOCC1
41 | 0.51 (≈ 1.02 µM) | COc1cc2ncc(C#N)c(Nc3ccc(-n4ccnc4)c(Cl)c3)c2cc1NC(=O)/C=C/CN(C)C
42 | 1.79 (≈ 4.25 µM) | COc1cc2ncc(C#N)c(Nc3ccc(-n4ccnc4)c(Cl)c3)c2cc1[N+](=O)[O-]
43 | 2.88 (≈ 6.17 µM) | COc1cc2ncc(C#N)c(Nc3ccc(Sc4nccn4C)c(Cl)c3)c2cc1[N+](=O)[O-]
44 | > 5 | CCOc1cc2ncc(C#N)c(Nc3ccc(Nc4nnc(C(F)(F)F)s4)c(Cl)c3)c2cc1N

The molecules below were run against EGFR (UniProt P00533). Settings: not given.
Chain of EGFR (P00533 whole entry, looked up): as above

Row | IC50 [µg/mL] | Compound
45 | 0.028 (≈ 0.0504 µM) | CCOc1cc2ncc(C#N)c(Nc3ccc(OCc4ccccc4)c(Cl)c3)c2cc1NC(=O)/C=C/CN(C)C
46 | 0.019 (≈ 0.0331 µM) | CCOc1cc2ncc(C#N)c(Nc3ccc(OCc4cccc(F)c4)c(Cl)c3)c2cc1NC(=O)/C=C/CN(C)C
